Measured values as given in US7385395B2, “Apparatus for preparing a solution of a hyperpolarized noble gas for NMR and MRI analysis” (priority 1996, dated 2008).
Read-outs that look alike come from different tables or passages of the source.

Key:
red blood cell (RBC) [1] = conditions: room temperature; Herbst et al. 1989; cited from earlier work
[2] = 129Xe spin-lattice relaxation time (T1) of hyperpolarized xenon in solution; format: physicochemical
Experimental: The design of the shaker used in the dissolution stage for xenon mixing and delivery is illustrated in FIG. 1. The shaker has a small sidearm which can be isolated from the main volume by a stopcock. The shaker is charged with a sample of either normal abundance or isotopically enriched xenon (80% ^129Xe, EG&G Mound, Miamisburg, Ohio, U.S.A.). Laser polarization is performed prior to admitting the xenon to the shaker. Briefly, approximately 5×10^−4 mol of 80. % isotopically enriched ^129Xe was optically pumped in a 30 cc cylindrical glass pumping cell (diameter≈30 mm). Before optical pumping, the cell was cleaned and coated with SURFASIL® (Pierce Chemical Co., Florence, Mass., U.S.A.); the cell was then evacuated to 10^−6 torr and loaded with one drop of melted rubidium metal in a dry nitrogen environment. Optical pumping was performed with a 1.3 W continuous-wave Ti:sapphire laser (794.7 nm) for 20-30 min, and the temperature of the cell was maintained at 60-80° C. by a temperature-controlled nitrogen gas stream. Typically, the apparatus produces xenon polarization levels in the range of 5-10%.
Following laser polarization, the polarized ^129Xe is frozen at liquid nitrogen temperatures in the sidearm in a magnetic field of approximately 50 mT provided by a small permanent magnet. The magnetic field is used in the freezing stage to prevent the decay of xenon polarization. The xenon is sublimated and then admitted into the solution. The small size of the shaker allows for the accumulation of several atmospheres of xenon pressure which aids in increasing the xenon concentration in the solution. During the dissolution procedure, the vessel is vigorously shaken to help dissolve the xenon gas. The resulting xenon solution is extracted with a syringe through a high-pressure rubber septum. In those examples below wherein a solution NMR study is performed on an in vitro sample, the xenon is immediately injected into an NMR tube which contains the sample to be studied.
Solutions of hyperpolarized ^129Xe in partially deuterated benzene (25% C6D5H, 75% C6D6) were prepared as described above for saline solutions of ^129Xe with the exception that the shaker was charged with the benzene solution rather than saline. Typically, 4×10^−4 mol of enriched ^129Xe (80%, EG&G Mound) were used in one experiment at a pressure of 1 atm. ^129Xe NMR was performed at 51 MHz on a Quest 4300 spectrometer (Nalorac Cryogenics, Martinez, Calif., U.S.A.) with a home built probe and a tipping angle of 3°. ^1H NMR was performed at 185 MHz with a home built probe and a tipping angle of 3°.
Hyperpolarized xenon and mixtures of hyperpolarized xenon and cyclodextrins were prepared generally as discussed above. SPINOE signals of 0.05 M cyclodextrin solutions in deuterated DMSO were measured as described above in Example 8.

human blood = test: 129Xe NMR relaxation and signal of xenon delivered to human blood / red blood cell sample in vitro; format: in vitro ADME
Experimental: The portion removed accounted for approximately 30% of the total volume of the blood sample. Following removal of a portion of the plasma, xenon saturated saline (1 mL) was injected into the red blood cell (RBC) sample (1 mL) and the ^129Xe NMR was measured. The NMR spectra were measured on a Bruker AM-400 spectrometer.
By using short rf pulses of small tipping angle, ^129Xe NMR spectra were acquired as a function of time after injection of the xenon/saline mixture into the blood. NMR spectra were measured on a Bruker AM-400 spectrometer.
A solution of hyperpolarized xenon in […] ® was prepared in the same manner as described for the saline solution of hyperpolarized xenon, however, the shaker was charged with […] ® rather than saline. […] The […] ® solution was charged with laser polarized ^129Xe and an aliquot (1 mL) of this solution was added to human blood (1 mL). The spectra were obtained on a Bruker AM-400 spectrometer.
A solution of hyperpolarized xenon in FLUOSOL® was prepared in the same manner as described for the saline solution of hyperpolarized xenon, however, the shaker was charged with FLUOSOL® rather than saline. The FLUOSOL® solution was charged with laser polarized ^129Xe and an aliquot (1 mL) of this solution was added to human blood (1 mL). The spectra were obtained on a Bruker AM-400 spectrometer.

red blood cell (RBC) [3] = tested on: red blood cell (RBC)
Experimental: NMR spectra were measured on a CMX Infinity spectrometer (Chemamagnetics-Otsuka Electronics, Fort Collins, Colo., U.S.A.) at a magnetic field of 4.3 Tesla.
The xenon exchange rate between the extracellular and intracellular compartments of a RBC/saline/plasma sample was measured by selectively inverting the xenon saline/plasma NMR line and observing the recovery of the two signals. The selective inversion was achieved by an amplitude-modulated Gaussian pulse of 1 ms duration centered at the frequency of the saline/plasma signal. […] A field gradient pulse of 1 ms was applied after the inversion pulse to dephase any components of the transverse magnetization. After the inversion pulse, xenon spectra were taken at fixed time intervals using a small tipping angle (20°). Following the addition of the xenon/saline solution into the RBC sample, a delay of 3 seconds before the application of the inversion pulse insured that the xenon/RBC system was well mixed and equilibrated.
[formula] where τRBC and τp1 are residence time constants for xenon in the RBC and saline/plasma, and 1/τ=1/τRBC+1/τp1. S^oRBC and S^op1 are the initial intensities for the RBC and the plasma/saline components, respectively, immediately after the inversion pulse. The effect of the spin-lattice relaxation is neglected since τ<<T1, making S^oRBC+S^op1 a constant during the exchange process.

[4] = rat, in vivo
Experimental: Male rats weighing 200-250 grams were anesthetized by intramuscular injection of ketamine/xylazine/acepromazine (30/3/0.6 mg/kg). Supplemental intramuscular doses were administered as needed to maintain anesthesia. A venous catheter was placed into a tail vein, and the receiver/transmitter surface coil was placed over the heart and liver (FIG. 18). Acquisitions began at start of the injection. Prior to each experiment the rat was placed in lateral recumbency into the magnet. At the conclusion of each experiment, the catheter was removed and the rat was returned to its cage to recover from anesthesia.
The ^129Xe NMR spectra were obtained on a home-built NMR spectrometer interfaced with a Bruker 2.35 T magnet (xenon frequency: 27.68 MHz, bore diameter: 25 cm). […] For the spectroscopy experiment, spectra were obtained every second (pulse angle: ≈20°).
The rats, anesthesia and apparatus were as described in Example 10, above.

[5] = in saline; STP volume of xenon dissolved in 1 liter of liquid at 1 atm gas pressure; cited from earlier work
[6] = selective inversion experiment, 4.3 Tesla

Row | 129Xe T1 ([2]; 0.1 M p-nitrotoluene in deuterated benzene) [s] | 129Xe T1 ([2]; 0.1 M α-cyclodextrin solution in deuterated DMSO) [s] | T1 of xenon ([2]; H2O/saline (0.9% NaCl), 9.4 T) [s] | xenon T1 ([2]; in INTRALIPID solution) [s] | observed spin-lattice relaxation time of 129Xe in solution ([2]; normal benzene, combination of gas and solution relaxation times) [s] | observed spin-lattice relaxation time of 129Xe in solution ([2]; partially deuterated benzene (25% C6D5H, 75% C6D6)) [s] | T1 of xenon ([2]; saline made with D2O) | T1 of the narrow peak (human blood; xenon/FLUOSOL solution 1 mL added to human blood 1 mL, 216 ppm RBC peak) [s] | T1 decay time of the signal at 194 ppm (human blood; xenon/INTRALIPID solution 1 mL added to human blood 1 mL) [s] | T1 decay time relative to xenon in saline water/blood mixture (human blood; xenon/INTRALIPID solution in blood, 194 ppm signal) | equilibrium distribution of the integral of the two peaks (RBC vs saline/plasma) (red blood cell (RBC) [3]) | ratio of integrated intensities of broad (FLUOSOL) and narrow (RBC) peaks (red blood cell (RBC) [3]) | ratio of peak of xenon in INTRALIPID solution to peak of intracellular xenon (red blood cell (RBC) [3]) | time of maximum xenon signal intensity after start of injection [4] [s] | SMILES | residence time constant in the RBC, τRBC (red blood cell (RBC) [1]) [ms] | residence time constant in saline/plasma, τpl (red blood cell (RBC) [3]; [6]) [ms] | residence time constant in the RBC, τRBC (red blood cell (RBC) [3]; [6]) [ms] | exchange time constant τ (1/τ=1/τRBC+1/τpl) (red blood cell (RBC) [3]; selective inversion of saline/plasma line, 4.3 Tesla) [ms] | Ostwald coefficient [5]
1 |  |  |  |  |  |  |  |  |  |  |  |  |  |  | O [water] | 12 ± 2 |  |  |  | 
2 | > 500 | 20 | 66 | 40 ± 3 | ~200 | ~1000 | ≈ 1000 s | 13 ± 1 | 16 | approximately 3 fold | approximately 50% | approximately 3 | approximately 6:1 | 7 | [Xe] [xenon] |  | 29.1 ± 2 | 20.4 ± 2 | 12.0 ± 1 | 0.0926
